For assay [1], the target named is Programmed cell death protein 1/Programmed cell death 1 ligand 1 (Homo sapiens, UniProt Q15116+Q9NZQ7). The assay is described as follows: Inhibition of PD-1/PDL1 interaction (unknown origin) in by HTRF assay. The assay is classed as protein-complex assay. A general note: Time-resolved FRET reads energy transfer from a long-lived donor to a nearby acceptor.
The target in assay [2] is T1, Protein cereblon/Protein deacetylase HDAC6 (Homo sapiens, UniProt Q9UBN7+Q96SW2). In words: PROTAC activity at CRBN/HDAC6 in human HL-60 cells assessed as HDAC6 degradation. The assay is classed as cell-based.
Target sequence in this assay (Q9UBN7 whole entry): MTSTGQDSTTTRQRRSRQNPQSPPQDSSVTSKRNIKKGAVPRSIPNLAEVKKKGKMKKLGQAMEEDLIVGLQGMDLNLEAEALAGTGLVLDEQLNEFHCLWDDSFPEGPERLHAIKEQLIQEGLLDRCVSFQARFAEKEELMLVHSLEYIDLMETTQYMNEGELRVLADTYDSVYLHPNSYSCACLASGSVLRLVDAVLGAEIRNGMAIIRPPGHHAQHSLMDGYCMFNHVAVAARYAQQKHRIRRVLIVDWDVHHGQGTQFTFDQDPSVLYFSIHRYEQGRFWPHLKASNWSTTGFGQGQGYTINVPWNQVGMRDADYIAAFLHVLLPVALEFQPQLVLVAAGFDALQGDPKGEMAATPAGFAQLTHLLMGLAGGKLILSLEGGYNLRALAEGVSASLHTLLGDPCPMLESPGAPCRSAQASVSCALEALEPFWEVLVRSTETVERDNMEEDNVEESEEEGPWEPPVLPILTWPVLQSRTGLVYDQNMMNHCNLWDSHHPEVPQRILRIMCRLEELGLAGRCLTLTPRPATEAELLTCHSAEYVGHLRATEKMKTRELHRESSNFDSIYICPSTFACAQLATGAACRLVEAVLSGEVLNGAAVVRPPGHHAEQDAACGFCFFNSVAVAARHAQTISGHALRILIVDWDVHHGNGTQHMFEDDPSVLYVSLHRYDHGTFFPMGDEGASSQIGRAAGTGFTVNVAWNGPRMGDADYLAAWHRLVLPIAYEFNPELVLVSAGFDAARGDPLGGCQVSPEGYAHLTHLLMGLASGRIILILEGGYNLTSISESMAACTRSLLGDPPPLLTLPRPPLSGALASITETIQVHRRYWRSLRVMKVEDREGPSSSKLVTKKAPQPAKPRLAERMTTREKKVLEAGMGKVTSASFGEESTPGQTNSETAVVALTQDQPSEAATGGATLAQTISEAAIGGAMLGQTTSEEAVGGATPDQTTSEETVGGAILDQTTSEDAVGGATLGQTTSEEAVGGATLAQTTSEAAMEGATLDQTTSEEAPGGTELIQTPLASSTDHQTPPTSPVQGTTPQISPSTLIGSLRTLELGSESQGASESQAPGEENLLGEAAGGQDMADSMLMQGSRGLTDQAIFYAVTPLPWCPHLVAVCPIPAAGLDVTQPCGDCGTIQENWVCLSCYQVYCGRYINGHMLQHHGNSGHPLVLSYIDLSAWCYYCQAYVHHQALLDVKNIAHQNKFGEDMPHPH
Target sequence in this assay (Q96SW2 whole entry): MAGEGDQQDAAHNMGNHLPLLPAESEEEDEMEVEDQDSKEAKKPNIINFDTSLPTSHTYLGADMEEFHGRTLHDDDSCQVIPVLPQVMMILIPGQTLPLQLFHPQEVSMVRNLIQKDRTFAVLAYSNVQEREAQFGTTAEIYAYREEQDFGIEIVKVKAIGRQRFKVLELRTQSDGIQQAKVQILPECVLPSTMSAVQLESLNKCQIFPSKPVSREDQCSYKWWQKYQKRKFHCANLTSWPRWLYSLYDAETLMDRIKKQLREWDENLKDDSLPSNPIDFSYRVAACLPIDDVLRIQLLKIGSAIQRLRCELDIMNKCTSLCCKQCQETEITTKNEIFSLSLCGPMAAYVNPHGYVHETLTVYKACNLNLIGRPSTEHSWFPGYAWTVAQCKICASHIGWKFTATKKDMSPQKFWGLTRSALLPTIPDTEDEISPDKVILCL
The target of assay [3] is T1, Protein cereblon/Protein deacetylase HDAC6. The assay is described as follows: PROTAC activity at CRBN/HDAC6 in human MM1.S cells assessed as HDAC6 degradation. The assay is classed as cell-based.
Target sequence in this assay (Q9UBN7 whole entry): as the sequence (Q9UBN7 whole entry) above
Target sequence in this assay (Q96SW2 whole entry): as the sequence (Q96SW2 whole entry) above
The target is the same in assay [4]. The assay is described as follows: PROTAC activity at CRBN/HDAC6 in human HL-60 cells assessed as HDAC6 degradation by measuring maximum efficacy relative to control. The assay is classed as cell-based.
Target sequence in this assay (Q96SW2 whole entry, looked up): as the sequence (Q96SW2 whole entry) above
Target sequence in this assay (Q9UBN7 whole entry, looked up): as the sequence (Q9UBN7 whole entry) above
For assay [5] the target is unchanged. The assay is described as follows: PROTAC activity at CRBN/HDAC6 in human JeKo-1 cells assessed as HDAC6 degradation incubated for 18 hrs by immunoblot analysis. The assay is classed as cell-based. In general terms: Immunoblotting shows a protein as a band on a membrane.
Target sequence in this assay (Q9UBN7 whole entry): as above
Target sequence in this assay (Q96SW2 whole entry): as the sequence (Q96SW2 whole entry) above
Assay [6] has the same target. In words: PROTAC activity at CRBN/HDAC6 in human MM1.S cells assessed as HDAC6 degradation by measuring maximum efficacy incubated for 18 hrs by immunoblot analysis relative to control. The assay is classed as cell-based.
Target sequence in this assay (Q96SW2 whole entry, looked up): as the sequence (Q96SW2 whole entry) above
Target sequence in this assay (Q9UBN7 whole entry, looked up): as the sequence (Q9UBN7 whole entry) above
Assay [7] shares this target. In words: PROTAC activity at CRBN/HDAC6 in human MINO cells assessed as HDAC6 degradation incubated for 18 hrs by immunoblot analysis. The assay is classed as cell-based.
Target sequence in this assay (Q9UBN7 whole entry): as above
Target sequence in this assay (Q96SW2 whole entry): as the sequence (Q96SW2 whole entry) above
Assay [8] shares this target. The assay is described as follows: PROTAC activity at CRBN/HDAC6 in human MDA-MB-231 cells assessed as HDAC6 degradation incubated for 18 hrs by immunoblot analysis. The assay is classed as cell-based.
Target sequence in this assay (Q9UBN7 whole entry): as the sequence (Q9UBN7 whole entry) above
Target sequence in this assay (Q96SW2 whole entry): as the sequence (Q96SW2 whole entry) above
Assay [9] shares this target. In words: PROTAC activity at CRBN/HDAC6 in human HUVEC cells assessed as HDAC6 degradation incubated for 18 hrs by immunoblot analysis. The assay is classed as cell-based.
Target sequence in this assay (Q9UBN7 whole entry): as the sequence (Q9UBN7 whole entry) above
Target sequence in this assay (Q96SW2 whole entry): as the sequence (Q96SW2 whole entry) above
Assay [10] shares this target. The assay is described as follows: PROTAC activity at CRBN/HDAC6 in human MM1.S cells assessed as HDAC6 degradation incubated for 18 hrs by immunoblot analysis. The assay is classed as cell-based.
Assay [11] addresses Protein cereblon/Histone deacetylase 8 (Homo sapiens, UniProt Q9BY41+Q96SW2). The assay is described as follows: PROTAC activity at CRBN/HDAC8 in human Jurkat T cells assessed as induction of degradation of HDAC8 by Western blot analysis. The assay is classed as cell-based.
Assay [12] deals with T2, von Hippel-Lindau disease tumor suppressor/Histone deacetylase 1 (Homo sapiens, UniProt Q13547+P40337). The assay is described as follows: PROTAC activity at VHL/HDAC1 in human HCT-116 cells assessed as degradation of HDAC1 by measuring maximum efficacy incubated for 24 hrs by immunoblot analysis relative to control. The assay is classed as cell-based.
The target of assay [13] is T2, von Hippel-Lindau disease tumor suppressor/Histone deacetylase 1. In words: PROTAC activity at VHL/HDAC1 in human HCT-116 cells assessed as degradation of HDAC1 incubated for 24 hrs by immunoblot analysis. The assay is classed as cell-based.
The target in assay [14] is T3, von Hippel-Lindau disease tumor suppressor/Histone deacetylase 2 (Homo sapiens, UniProt Q92769+P40337). The assay is described as follows: PROTAC activity at VHL/HDAC2 in human HCT-116 cells assessed as degradation of HDAC2 by measuring maximum efficacy incubated for 24 hrs by immunoblot analysis relative to control. The assay is classed as cell-based.
Assay [15] has as its target T3, von Hippel-Lindau disease tumor suppressor/Histone deacetylase 2. In words: PROTAC activity at VHL/HDAC2 in human HCT-116 cells assessed as degradation of HDAC2 incubated for 24 hrs by Western blot analysis. The assay is classed as cell-based.
Assay [16] has as its target T2, von Hippel-Lindau disease tumor suppressor/Histone deacetylase 1. The assay is described as follows: PROTAC activity at VHL/HDAC1 in human HCT-116 cells assessed as degradation of HDAC1 incubated for 24 hrs by Western blot analysis. The assay is classed as cell-based.
The target in assay [17] is T4, von Hippel-Lindau disease tumor suppressor/Histone deacetylase 3 (Homo sapiens, UniProt O15379+P40337). The assay is described as follows: PROTAC activity at VHL/HDAC3 in human HCT-116 cells assessed as degradation of HDAC3 incubated for 24 hrs by Western blot analysis. The assay is classed as cell-based.
Assay [18] can be described thus: Inhibition of LSD1/HDAC3/CoREST complex (unknown origin) using Boc-(Ac)Lys-AMC as substrate measured after 20 mins by fluorescence based analysis. Details: species or system Homo sapiens.
Assay [19] can be described thus: Inhibition of LSD1/HDAC1/CoREST complex (unknown origin) using Boc-(Ac)Lys-AMC as substrate measured after 20 mins by fluorescence based analysis. Set-up: species or system Homo sapiens.
Assay [20] is described as follows: Inhibition of LSD1/HDAC2/CoREST complex (unknown origin) using Boc-(Ac)Lys-AMC as substrate measured after 20 mins by fluorescence based analysis. Set-up: species or system Homo sapiens.
Assay [21] concerns the target T1, Protein cereblon/Protein deacetylase HDAC6. In words: PROTAC activity at CRBN/HDAC6 in human MM1.S cells assessed as induction of degradation of HDAC6 by measuring maximum efficacy relative to control. The assay is classed as cell-based.
Target sequence in this assay (Q96SW2 whole entry, looked up): as the sequence (Q96SW2 whole entry) above
Target sequence in this assay (Q9UBN7 whole entry, looked up): as the sequence (Q9UBN7 whole entry) above
For assay [22] the target is unchanged. In words: PROTAC activity at CRBN/HDAC6 in human MM1.S cells assessed as induction of degradation of HDAC6. The assay is classed as cell-based.
Assay [23] deals with T4, von Hippel-Lindau disease tumor suppressor/Histone deacetylase 3. The assay is described as follows: Protac activity at VHL/HDAC3 in human MDA-MB-468 cells assessed as HDAC3 degradation measured after 14 hrs by Western blot analysis. The assay is classed as cell-based.
In a further assay the test system is MDA-MB-468. The assay is described as follows: Antiproliferative activity against human MDA-MB-468 cells. The assay is classed as functional, cell-based.

These results are taken from ChEMBL document CHEMBL5512609, “HDAC-targeting epigenetic modulators for cancer immunotherapy” (Eur J Med Chem, 2024).

One may read the IC50 as the concentration at which inhibition is half-maximal. Low values mean higher potency, high ones lower potency. Broadly, the DC50 is the concentration giving 50% degradation. Usually Emax stands for the size of the effect at its maximum, as opposed to the concentration needed.

Programmed cell death protein 1/Programmed cell death 1 ligand 1, sequence (Q15116 whole entry): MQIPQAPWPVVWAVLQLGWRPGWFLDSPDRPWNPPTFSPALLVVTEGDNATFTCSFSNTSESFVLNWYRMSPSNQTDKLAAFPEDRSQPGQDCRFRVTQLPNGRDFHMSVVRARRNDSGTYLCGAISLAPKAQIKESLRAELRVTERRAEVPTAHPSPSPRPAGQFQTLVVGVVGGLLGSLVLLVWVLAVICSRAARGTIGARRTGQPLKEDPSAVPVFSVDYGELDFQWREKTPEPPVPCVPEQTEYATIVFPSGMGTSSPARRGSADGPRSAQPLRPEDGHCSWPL
Programmed cell death protein 1/Programmed cell death 1 ligand 1, sequence (Q9NZQ7 whole entry): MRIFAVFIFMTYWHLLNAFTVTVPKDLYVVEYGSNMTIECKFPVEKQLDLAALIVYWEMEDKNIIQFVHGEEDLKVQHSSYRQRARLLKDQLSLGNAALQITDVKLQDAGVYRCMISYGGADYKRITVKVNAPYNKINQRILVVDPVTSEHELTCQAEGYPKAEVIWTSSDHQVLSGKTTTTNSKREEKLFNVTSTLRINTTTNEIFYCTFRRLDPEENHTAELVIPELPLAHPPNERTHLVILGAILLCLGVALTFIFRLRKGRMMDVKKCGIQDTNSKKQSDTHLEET

With `COc1cc(OCc2cccc(-c3ccccc3)c2C)cc(OC)c1CNCCCCCCC(=O)NO`, the IC50 in assay [1] amounted to 85 nM.
In the case of `Cc1nc2cc(NC(=O)CCCCCCCNC(=O)COc3cccc4c3C(=O)N(C3CCC(=O)NC3=O)C4=O)ccc2n1Cc1ccc(C(=O)NO)cc1F` (stereo not drawn), the 50% degradation concentration (DC50) in [2] was 19.4 nM; in assay [3], 3.8 nM. Moreover, the Emax in assay [4] was 92.2%.
As for `Cc1c(COc2ccc(CNCCCCCC(=O)NO)c(F)c2)cccc1-c1ccccc1`, the half-inhibitory concentration (IC50) in assay [1] stood at 62 nM.
The same measure, in the same setting: then `Cc1c(COc2ccc(CNCCC(=O)NO)c(F)c2)cccc1-c1ccccc1`, with 120 nM.
`CCCCN(Cc1ccc(C(=O)NO)cc1)C(=O)Nc1ccc(OCCCCCCCn2cc(CCCCCNc3cccc4c3C(=O)N(C3CCC(=O)NC3=O)C4=O)nn2)cc1` (stereo not drawn): the half-maximal degradation concentration (DC50) in assay [5] amounted to 3.2 nM; in [7], 3.2 nM; in assay [8], 3.2 nM; in [9], 3.2 nM; in assay [10], 1.6 nM. In addition, in [6], the maximal response (Emax) is 86%.
For `COc1cc(C(=O)NO)ccc1NCc1ccc(OCc2cn(CCCCCC(=O)Nc3cccc4c3C(=O)N(C3CCC(=O)NC3=O)C4=O)nn2)cc1` (stereo not drawn), the 50% degradation concentration (DC50) in [11] stood at 250 nM.
Turning to `Cc1ncsc1-c1ccc(CNC(=O)[C@H]2C[C@H](O)CN2C(=O)[C@H](NC(=O)CCn2cc(CCCOC(=O)NCc3ccc(C(=O)Nc4ccc(F)cc4N)cc3)nn2)C(C)(C)C)cc1`, the maximum response (Emax) in assay [12] and in assay [14] was 62% throughout. Besides, the DC50 in assay [13] was determined as 2840 nM.
With `Cc1ncsc1-c1ccc(CNC(=O)[C@H]2C[C@H](O)CN2C(=O)[C@H](NC(=O)CCCCCCCCCCC(=O)Nc2ccc(C(=O)Nc3ccccc3N)cc2)C(C)(C)C)cc1`, the DC50 in [15], in assay [16] and in [17] was 1000 nM each time. Moreover, the concentration for half-maximal inhibition (IC50) in assay [18], in assay [19] and in assay [20] was 16800 nM throughout.
Turning to `CCCCN(Cc1ccc(C(=O)NO)cc1)C(=O)Nc1ccc(NC(=O)CCCCCc2cn(CCOCCNc3cccc4c3C(=O)N(C3CCC(=O)NC3=O)C4=O)nn2)cc1` (stereo not drawn), in assay [21], the maximal effect (Emax) came to 86%. Besides, the 50% degradation concentration (DC50) in assay [22] was determined as 1.6 nM.
`Cc1c(COc2ccc(CNCCC(=O)NO)c(OCc3cccc(C#N)c3)c2)cccc1-c1ccccc1` registered an IC50 in assay [1] of 82 nM.
Still for that read-out and setting: with `COc1cc(OCc2cccc(-c3ccccc3)c2C)cc(OC)c1CN(C)CCCC(=O)NO` the figure was 104 nM.
Take `CCCNNC(=O)c1ccc(-c2ccc(NC(=O)CCCCCCC(=O)N[C@H](C(=O)N3C[C@H](O)C[C@H]3C(=O)N[C@H](C)c3ccc(-c4scnc4C)cc3)C(C)(C)C)cc2)cc1`: the DC50 in [23] is 42 nM. In addition, in the assay with MDA-MB-468, 52 nM corresponded to half-maximal inhibition (IC50).
